Data from US9073863B2, “Cyanoquinoline compounds having activity in correcting mutant-CFTR processing and increasing ion transport and uses thereof” (The Regents of the University of California, priority 2011, dated 2015).

Columns and labels:
[1] = biological target: T1, ΔF508-CFTR (Homo sapiens, UniProt P13569, DEL508-508); assay: Potentiator assay, YFP fluorescence plate reader iodide influx in low-temperature rescued ΔF508-CFTR expressing FRT cells; format: cell-based; details: for EC50 / Potentiator Vmax / Potentiator EC50: forskolin 20 μM + test compound; for potentiator activity, in words: piperazine ring in place of diamino ethylene tether
T1 construct: expressed in transfected cells; host or cells: Fischer rat thyroid (FRT) epithelial cells, stably transfected
T1 sequence (P13569 with tags, fused parts or gaps DEL508-508): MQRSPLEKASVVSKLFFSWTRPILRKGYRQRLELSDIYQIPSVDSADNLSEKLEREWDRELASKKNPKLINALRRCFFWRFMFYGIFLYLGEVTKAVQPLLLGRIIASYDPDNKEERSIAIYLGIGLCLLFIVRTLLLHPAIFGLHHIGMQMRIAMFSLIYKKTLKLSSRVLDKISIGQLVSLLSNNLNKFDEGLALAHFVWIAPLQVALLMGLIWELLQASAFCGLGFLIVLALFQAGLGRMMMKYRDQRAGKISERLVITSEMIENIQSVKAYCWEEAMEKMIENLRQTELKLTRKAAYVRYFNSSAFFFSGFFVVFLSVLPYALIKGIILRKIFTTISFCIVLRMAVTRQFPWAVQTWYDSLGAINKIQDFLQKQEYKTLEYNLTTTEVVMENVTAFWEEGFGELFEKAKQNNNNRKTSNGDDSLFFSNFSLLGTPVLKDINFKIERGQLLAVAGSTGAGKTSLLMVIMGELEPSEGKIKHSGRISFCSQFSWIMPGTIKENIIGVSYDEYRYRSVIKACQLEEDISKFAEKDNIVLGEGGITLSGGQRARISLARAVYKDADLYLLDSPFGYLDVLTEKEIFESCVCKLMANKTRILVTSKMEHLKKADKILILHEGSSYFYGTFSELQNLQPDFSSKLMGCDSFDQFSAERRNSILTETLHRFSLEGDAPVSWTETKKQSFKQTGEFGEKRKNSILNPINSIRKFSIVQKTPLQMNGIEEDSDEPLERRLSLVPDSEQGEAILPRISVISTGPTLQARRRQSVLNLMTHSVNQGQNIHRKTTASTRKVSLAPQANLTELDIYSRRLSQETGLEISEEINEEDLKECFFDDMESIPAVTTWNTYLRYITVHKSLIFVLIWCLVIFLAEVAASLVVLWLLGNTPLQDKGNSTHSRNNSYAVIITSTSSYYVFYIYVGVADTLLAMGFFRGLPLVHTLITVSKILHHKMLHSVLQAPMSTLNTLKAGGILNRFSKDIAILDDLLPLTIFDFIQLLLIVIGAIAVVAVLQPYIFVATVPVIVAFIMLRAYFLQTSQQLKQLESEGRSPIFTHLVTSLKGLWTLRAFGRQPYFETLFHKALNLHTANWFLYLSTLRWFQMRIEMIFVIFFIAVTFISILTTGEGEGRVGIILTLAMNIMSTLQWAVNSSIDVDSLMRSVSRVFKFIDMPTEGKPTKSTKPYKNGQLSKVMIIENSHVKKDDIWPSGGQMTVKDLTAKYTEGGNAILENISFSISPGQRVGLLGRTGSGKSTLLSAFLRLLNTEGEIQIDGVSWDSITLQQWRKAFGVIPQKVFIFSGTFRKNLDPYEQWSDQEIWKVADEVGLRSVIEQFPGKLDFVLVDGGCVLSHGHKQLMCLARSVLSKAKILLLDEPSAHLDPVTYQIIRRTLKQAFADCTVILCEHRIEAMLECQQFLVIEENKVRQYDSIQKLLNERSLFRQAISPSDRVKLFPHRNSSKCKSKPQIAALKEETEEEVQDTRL
Protocol: (§1) Screening procedures. Screening of compounds for activity was carried out using a Beckman Coulter platform equipped with FLUOstar fluorescence plate readers (Optima; BMG Labtech) with dual syringe pumps and 500±10 nm excitation and 535±15 nm emission filters (Chroma Corp.). For the corrector assay, FRT cells were grown at 37° C./5% CO2 for 18-24 h and then incubated for 18-24 h with 100 μL of medium containing test compounds (25 μM final concentration). At the time of the assay, cells were washed with PBS and then incubated for 10 min with PBS containing forskolin (20 μM) and genistein (50 μM). For the potentiator assay, FRT cells were grown at 37° C./5% CO2 for 18-24 h and then for 18-24 h at 27° C. At the time of the assay, cells were washed with PBS and then incubated for 10 min with PBS (50 μL) containing forskolin (20 μM) and test compound (0-25 μM final concentration). For both the corrector and potentiator assays, each well was assayed individually for I^− influx by recording fluorescence continuously (200 ms per point) for 2 s (baseline) and then for 12 s after rapid addition of 165 μL PBS in which 137 mM Cl^− was replaced by I^−. Initial I^− influx rate was computed by fitting the final 11.5 seconds of the data to an exponential for extrapolation of initial slope, which was normalized for background-subtracted initial fluorescence. All compound plates contained negative controls and positive controls (10 μM Corr-4a for corrector assay; 50 μM genistein for potentiator assay).
(§2) Screening of about 110,000 small molecules was done to identify new ΔF508-CFTR corrector scaffolds having high correction efficiency and/or having independent potentiator activity. […] FRT cells co-expressing human ΔF508-CFTR and a halide-sensing YFP were incubated with test compounds at 37° C. (corrector assay) or 27° C. (potentiator assay). ΔF508-CFTR function was assayed in a plate reader from YFP fluorescence quenching in response to iodide addition in the presence of forskolin (20 μM) plus genistein (50 μM) for corrector assay, or forskolin (20 μM) alone for potentiator assay. As shown in FIG. 1A (left), primary screening for corrector activity was done using a cell-based fluorescence assay of iodide influx in which FRT cells expressing ΔF508-CFTR and an iodide-sensitive YFP were incubated with test compounds at 10 μM for 18-24 h prior to assay. Iodide influx was measured by addition of extracellular iodide in the presence of a potentiator (50 μM genistein) and cAMP agonist (20 μM forskolin). Compound efficacy and potency (from concentration-dependence studies) in the corrector assay were compared to reference bithiazole Corr-4a (10 μM) and to low-temperature rescued cells. Active compounds were counter-screened for potentiator activity (FIG. 1A, right) in which iodide influx was measured in the ΔF508-CFTR expressing FRT cells after low-temperature rescue and in the presence of 20 μM forskolin.
(§3) Screening procedures. Plate reader activity assay was carried out using a Beckman Coulter platform containing a robotic arm, CO2 incubator containing microplate carousel, plate-washer, liquid handling work station, bar code reader, de-lidding station, plate sealer, and FLUOstar fluorescence plate readers (Optima; BMG LABTECH Gmbh), equipped with dual syringe pumps and 500±10 nm excitation and 535±15 nm emission filters (Chroma Corp.). For the corrector assay, ΔF508-CFTR-expressing FRT cells were grown at 37° C. (90% humidity; 5% CO2) for 18-24 h and then incubated for 18-24 h with 100 μL of medium containing test compounds (0-25 μM final concentration). At the time of the assay, cells were washed with PBS and then incubated for 10 min with PBS containing forskolin (20 μM) and genistein (50 μM). For the potentiator assay, FRT cells were grown at 37° C. (90% humidity; 5% CO2) for 18-24 h and then for 18-24 h at 27° C. […]

[2] = biological target: T1, ΔF508-CFTR; assay: Corrector assay, YFP fluorescence plate reader iodide influx in ΔF508-CFTR expressing FRT cells; format: cell-based; details: for Corrector Vmax / EC50 / Corrector EC50: 18-24 h with compound at 37° C., forskolin 20 μM + genistein 50 μM; for corrector and potentiator activities, in words: concentration-dependence in corrector and potentiator I− influx assays (FIG. 2, FIG. 7); for corrector activity, comparison in words: propylene tether, methoxy position on arylamide
Protocol: as §1, §2, §3

[3] = Table VIII, FRT cells 18-24 h at 27° C., I− influx
[4] = Table VIII, FRT cells, I− influx
[5] = Table IX, additional experiments, 18-24 h at 27° C.
[6] = Table IX, additional experiments

Row | Compound | EC50 [1, 3] [µM] | Potentiator Vmax [1, 3] | Corrector Vmax [2, 4] | other results
1 | COc1ccc2nc(N3CCN(C(=O)c4ccccc4F)CC3)c(C#N)cc2c1 | 11 | 195 µM/s | 140 µM/s | EC50 [2, 4]: 4.2 µM
2 | COc1ccc2nc(N3CCN(C(=O)c4ccccc4Cl)CC3)c(C#N)cc2c1 | 13 | 261 µM/s | inactive | Corrector EC50 [2, 4]: inactive
3 | COc1ccc2nc(N3CCN(C(=O)c4ccccc4Br)CC3)c(C#N)cc2c1 | 5 | 235 µM/s | inactive | Corrector EC50 [2, 4]: inactive
4 | Cc1ccc2cc(C#N)c(N3CCCN(C(=O)c4cccs4)CC3)nc2c1 | 13 | 261 µM/s | inactive | Corrector EC50 [2, 4]: inactive
5 | Cc1cc(C)c2cc(C#N)c(N3CCN(C(=O)c4ccncc4)CC3)nc2c1 |  |  |  | Potentiator EC50 [1, 5]: inactive; Potentiator Vmax [1, 5]: inactive; Corrector EC50 [2, 6]: inactive; Corrector Vmax [2, 6]: inactive
6 | COc1ccccc1C(=O)NCCCNc1nc2cc(C)cc(C)c2cc1C#N |  |  |  | EC50 [1, 5]: 27.6 ± 2 µM; Potentiator Vmax [1, 5]: 254 µM/s; Corrector Vmax [2, 6]: inactive
7 | Cc1cc(C)c2cc(C#N)c(NCCNC(=O)c3ccccc3)nc2c1 |  |  |  | EC50 [1, 5]: 10 ± 2 µM; Potentiator Vmax [1, 5]: 210 µM/s; Corrector Vmax [2, 6]: inactive
8 | COc1cccc(OC)c1C(=O)NCCNc1nc2cc(C)cc(C)c2cc1C#N |  |  |  | EC50 [1, 5]: 11.5 ± 1 µM; Potentiator Vmax [1, 5]: 119 µM/s; Corrector Vmax [2, 6]: 111 µM/s; EC50 [2, 6]: 3.7 ± 0.6 µM
9 | COc1ccc(C(=O)NCCNc2nc3cc(C)cc(C)c3cc2C#N)c(OC)c1 |  |  |  | EC50 [1, 5]: 55 ± 3.5 µM; Potentiator Vmax [1, 5]: 426 µM/s; Corrector Vmax [2, 6]: 108 µM/s; EC50 [2, 6]: 4.2 ± 0.4 µM
10 | Cc1cc(C)c2cc(C#N)c(NCCNC(=O)c3cnccn3)nc2c1 |  |  |  | Potentiator Vmax [1, 5]: inactive; Corrector Vmax [2, 6]: 174 µM/s; EC50 [2, 6]: 6.7 ± 1 µM
11 | COc1ccc(C(=O)NCCNc2nc3c(C)cccc3cc2C#N)cc1OC [Compound 01] |  |  |  | corrector and potentiator activities, in words [2]: corrector and potentiator activities comparable to those of Compound 22
12 | COc1ccc(C(=O)NCCNc2nc3ccc(C)cc3cc2C#N)cc1OC [Compound 02] |  |  |  | corrector and potentiator activities, in words [2]: corrector and potentiator activities comparable to those of Compound 22
13 | Cc1cc(C)c2cc(C#N)c(NCCNC(=O)c3cccs3)nc2c1 [Compound 03] |  |  |  | corrector and potentiator activities, in words [2]: dual activities
14 | COc1ccc(S(=O)(=O)N2CCN(c3nc4ccc(C)cc4cc3C#N)CC2)cc1 [Compound 05] |  |  |  | corrector and potentiator activities, in words [2]: dual activities
15 | CCOc1ccccc1NC(=S)NCCNc1nc2c(C)cccc2cc1C#N [Compound 14] |  |  |  | corrector and potentiator activities, in words [2]: potentiator-only activity
16 | COc1ccc(C(=O)NCCNc2nc3cc(C)cc(C)c3cc2C#N)cc1OC [Compound 103] |  |  |  | corrector and potentiator activities, in words [2]: both corrector and potentiator activities
17 | COc1ccc(C(=O)NCCNc2nc3cc(C)cc(C)c3cc2C#N)nc1 [Compound 110] |  |  |  | corrector and potentiator activities, in words [2]: both corrector and potentiator activities
18 | COc1ccccc1C(=O)N1CCN(c2nc3cc(C)cc(C)c3cc2C#N)CC1 [Compound AW1] |  |  |  | potentiator activity, in words [1]: significant potentiator activity; corrector and potentiator activities, in words [2]: potentiator-only activity
19 | COc1cccc(C(=O)N2CCN(c3nc4cc(C)cc(C)c4cc3C#N)CC2)c1 [Compound AW2] |  |  |  | potentiator activity, in words [1]: significant potentiator activity
20 | COc1ccc(C(=O)N2CCN(c3nc4cc(C)cc(C)c4cc3C#N)CC2)cc1 [Compound AW3] |  |  |  | potentiator activity, in words [1]: significant potentiator activity; corrector and potentiator activities, in words [2]: potentiator-only activity

Row | Compound | EC50 [1, 3] [µM] | Potentiator Vmax [1, 3] | Corrector Vmax [2, 4] | other results
21 | COc1cccc(C(=O)NCCCNc2nc3cc(C)cc(C)c3cc2C#N)c1 [Compound AW8] |  |  |  | corrector activity, comparison in words [2]: greater corrector activity than Compound AW7
22 | COc1ccc(C(=O)NCCCNc2nc3cc(C)cc(C)c3cc2C#N)cc1 [Compound AW9] |  |  |  | corrector activity, comparison in words [2]: greater corrector activity than Compound AW7
23 | Cc1cc(C)c2cc(C#N)c(NCCNC(=O)c3cccnc3)nc2c1 [Compound CP5] |  |  |  | corrector and potentiator activities, in words [2]: both corrector and potentiator activities
24 | COc1ccc(C(=O)NCCNc2nc3c(C)cccc3cc2C#N)cc1OC [drawing 137] | 15 | 250 µM/s | 223 µM/s | EC50 [2, 4]: 3.8 µM
25 | COc1ccc(C(=O)NCCNc2nc3ccc(C)cc3cc2C#N)cc1OC [drawing 138] | 15 | 297 µM/s | 281 µM/s | EC50 [2, 4]: 3.9 µM
26 | Cc1cc(C)c2cc(C#N)c(NCCNC(=O)c3cccs3)nc2c1 [drawing 139] | 14 | 289 µM/s | 228 µM/s | EC50 [2, 4]: 14 µM
27 | COc1ccc(S(=O)(=O)N2CCN(c3nc4ccc(C)cc4cc3C#N)CC2)cc1 [drawing 140] | 3.8 | 72 µM/s | 102 µM/s | EC50 [2, 4]: 5 µM
28 | CCOc1ccccc1NC(=S)NCCNc1nc2c(C)cccc2cc1C#N [drawing 144] | 6 | 275 µM/s | inactive | Corrector EC50 [2, 4]: inactive
29 | COc1cccc(C(=O)NCCNc2nc3cc(C)cc(C)c3cc2C#N)c1 [drawing 146] |  | 306 µM/s | 300 µM/s | 
30 | COc1ccccc1C(=O)NCCNc1nc2cc(C)cc(C)c2cc1C#N [drawing 147] | 2.3 | 154 µM/s | 114 µM/s | 
31 | COc1ccc(C(=O)NCCNc2nc3cc(C)cc(C)c3cc2C#N)cc1 [drawing 148] | 4.1 | 181 µM/s | 172 µM/s | EC50 [2, 4]: 3 µM
32 | Cc1cc(C)c2cc(C#N)c(NCCNC(=O)c3ccccn3)nc2c1 [drawing 149] |  | 80 µM/s | inactive | 
33 | Cc1cc(C)c2cc(C#N)c(NCCNC(=O)c3cccnc3)nc2c1 [drawing 150] | 11 | 152 µM/s | 223 µM/s | EC50 [2, 4]: 15.2 µM
34 | Cc1cc(C)c2cc(C#N)c(NCCNC(=O)c3ccncc3)nc2c1 [drawing 151] |  | 220 µM/s | 172 µM/s | EC50 [2, 4]: 9.1 µM
35 | COc1ccccc1C(=O)N1CCN(c2nc3cc(C)cc(C)c3cc2C#N)CC1 [drawing 152] |  | 129 µM/s | inactive | 
36 | COc1cccc(C(=O)N2CCN(c3nc4cc(C)cc(C)c4cc3C#N)CC2)c1 [drawing 153] | 1.2 | 200 µM/s | inactive | 
37 | Cc1cc(C)c2cc(C#N)c(N3CCN(C(=O)c4cccnc4)CC3)nc2c1 [drawing 156] |  | inactive |  | Potentiator EC50 [1, 3]: inactive
38 | Cc1cc(C)c2cc(C#N)c(NCCCNC(=O)c3ccccn3)nc2c1 [drawing 161] | 6.1 | 233 µM/s |  | 
39 | Cc1cc(C)c2cc(C#N)c(NCCCNC(=O)c3ccncc3)nc2c1 [drawing 163] |  |  | inactive | Corrector EC50 [2, 4]: inactive
